Reference: paper PMC4393269, “Carvacrol Codrugs: A New Approach in the Antimicrobial Plan” (PLoS ONE, 2015)
Converted amounts (≈) assume the structure as drawn. Read-outs that look alike come from different tables or passages of the source. Each block holds one compound with its values, some of them ahead of it.

Tests used:
Assay type in all cases: cell-based
E. coli ATCC 8739 [1] = test: Broth microdilution MIC/MBC on planktonic cells; details: Escherichia coli
Method: (§1) Two Gram-positive (S. aureus ATCC 29213 and S. epidermidis ATCC 35984) and two Gram-negative (E. coli ATCC 8739 and P. aeruginosa ATCC 9027) strains, and one fungal strain (C. albicans ATCC 10231) were used for the detection of antibacterial activity of carvacrol, NAC, Ac-Cys(Allyl)-OH, and carvacrol codrugs 1–10. All tested compounds were dissolved in 20% DMSO to prepare the stock solution (100 mg/mL). The final concentration of DMSO in each well appeared to be not toxic for all studied microorganisms, as confirmed by the solvent control test included in the study.
(§2) The effects of carvacrol codrugs 1–10 and reference compounds on planktonic cells were evaluated by Minimum Inhibitory Concentration (MIC) and Minimum Bactericidal Concentration (MBC) determination using the broth microdilution method according to EUCAST guidelines. Bacterial suspensions, grown in Mueller–Hinton Broth (MHB) at logarithmic phase, were incubated on microtiter plates at a concentration of 5 x 10^5 CFU/mL, with several dilutions (0.07–40 mg/mL) for 24 h at 37°C. The MIC was defined as the lowest concentration of substances giving a complete inhibition of visible growth in comparison with a control well, and the MBC was determined as the lowest concentration at which no bacterial growth occurred on Mueller–Hinton Agar plates.
(§3) Data were obtained from at least three independent experiments performed in duplicate. The susceptibility of the bacterial strains against ciprofloxacin was used as an internal standard during MIC determinations.

P. aeruginosa ATCC 9027 [2] = test: Broth microdilution MIC/MBC on planktonic cells; details: Pseudomonas aeruginosa
Method: as §1, §2, §3

S. aureus ATCC 29213 [3] = test: Broth microdilution MIC/MBC on planktonic cells; details: Staphylococcus aureus
Method: as §1, §2, §3

[4] = tested on: S. epidermidis ATCC 35984; test: Broth microdilution MIC/MBC on planktonic cells; details: Staphylococcus epidermidis
Method: as §1, §2, §3

C. albicans ATCC 10231 [5] = test: Broth microdilution MIC/MFC; details: Candida albicans, ATCC10231
Method: as §1
The MIC detection of C. albicans ATCC 10231 was performed using the broth microdilution method according to EUCAST guidelines in RPMI 1640 plus 2% glucose with a final inoculum of 1–5 x 10^5 CFU/mL for 24–48 h at 37°C. The Minimum Fungicidal Concentration (MFC) was determined as the lowest concentration of substances at which no fungal growth occurred on Sabouraud agar plates.
as §3

[6] = tested on: Gram positive and Gram negative tested bacteria; test: Broth microdilution MIC/MBC, range over the bacterial panel; details: Gram positive and Gram negative tested bacteria
Method: as §1
as §2, with “plates. […]” for “plates.”

C. albicans ATCC 10231 [7] = test: Antibiofilm assay on established biofilm (BIC/BEC)
Method: (§4) The efficacy on established biofilm was evaluated by determining Biofilm Inhibitory Concentration (BIC) and Biofilm Eradication Concentration (BEC) according to the method described by Johnson et al. with some modifications. Bacterial suspensions, grown in Tryptic soy broth supplemented with 0.5% (v/v) glucose at logarithmic phase, as well as C. albicans grown in RPMI 1640 plus 2% glucose, were incubated on flat-bottomed microtiter plates at a concentration of 5 x 10^5 CFU/mL. After 24 h of incubation at 37°C, the planktonic cells were gently removed and wells were washed with sterile phosphate-buffered saline solution (PBS) pH 7.3 and filled with carvacrol, carvacrol codrug 4, Ac-Cys(Allyl)-OH with dilutions ranging from the MIC values to a maximum concentration of 50 mg/mL. The OD600 was measured at time 0 and after incubation for 24 h at 37°C. The BIC values were determined as the lowest concentrations where no growth occurred in the supernatant fluid, confirmed by no increase in optical density compared with the initial reading. The BEC values were determined as the lowest concentrations at which no bacterial growth occurred on Tryptic soy agar for bacteria and on Sabouraud agar for C. albicans. Data were obtained from at least three independent experiments performed in duplicate.

E. coli ATCC 8739 [8] = test: Antibiofilm assay on established biofilm (BIC/BEC)
Method: as §4

P. aeruginosa ATCC 9027 [9] = test: Antibiofilm assay on established biofilm (BIC/BEC)
Method: as §4

S. aureus ATCC 29213 [10] = test: Antibiofilm assay on established biofilm (BIC/BEC); details: S. aureus ATCC 29213 established biofilm
Method: as §4

[11] = tested on: S. epidermidis ATCC 35984; test: Antibiofilm assay on established biofilm (BIC/BEC)
Method: as §4

[12] = tested on: human red blood cells (h-RBC); test: Hemolytic activity; details: 4% h-RBC, 1 h at 37°C; for hemolytic activity, maximum at the tested concentrations: 25 to 0.05 mg/mL
Method: Experimental protocols to study hemolysis on human red cells were approved by Ethics Committee of the University “G. d’Annunzio” Chieti-Pescara. Human red cells were from two volunteers, who signed the informed consent for this study.
Hemolytic activity of carvacrol codrugs 1–10 was tested against human red blood cells (h-RBC). Fresh human blood, collected with EDTA, was centrifuged at 3000 rpm for 5 min then washed three times with PBS pH 7.3. Red blood cells were diluted to 4% in PBS and incubated with different codrugs concentrations ranging from 25 to 0.05 mg/mL. After 1 h of incubation at 37°C, the suspensions were sedimented by centrifugation and the release of hemoglobin was determined by absorbance measurement at 405 nm and compared with a 0% hemolysis control (PBS) and a 100% hemolysis control (PBS with 1% v/v Triton X-100). The percentage of hemolysis was calculated using the following equation: Hemolysis (%) = [(OD405sample - OD4050% lysis control)/(OD405100% lysis control - OD4050% lysis contro)] X 100

[13] = ATCC8739, E. coli ATCC 8739, 24 h at 37°C, read-out: MIC
[14] = ATCC8739, E. coli ATCC 8739, read-out: MBC
[15] = ATCC9027, P. aeruginosa ATCC 9027, 24 h at 37°C, read-out: MIC
[16] = ATCC9027, P. aeruginosa ATCC 9027, read-out: MBC
[17] = ATCC29213, S. aureus ATCC 29213, 24 h at 37°C, read-out: MIC
[18] = ATCC29213, S. aureus ATCC 29213, read-out: MBC
[19] = ATCC35984, S. epidermidis ATCC 35984, 24 h at 37°C, read-out: MIC
[20] = ATCC35984, S. epidermidis ATCC 35984, read-out: MBC
[21] = C. albicans ATCC 10231, 24–48 h at 37°C, read-out: MIC
[22] = C. albicans ATCC 10231, read-out: MFC

SMILES: Cc1ccc(C(C)C)cc1O [Carvacrol, 2-methyl-5-[1-methylethyl]phenol]
MBC (E. coli ATCC 8739 [1]; ATCC8739): 1250 µg/mL (≈ 8.32 mM) | MIC (E. coli ATCC 8739 [1]; ATCC8739, 24 h): 600 µg/mL (≈ 3.99 mM) | MBC (P. aeruginosa ATCC 9027 [2]; ATCC9027): 10000 µg/mL (≈ 66.6 mM) | MIC (P. aeruginosa ATCC 9027 [2]; ATCC9027, 24 h): 5000 µg/mL (≈ 33.3 mM) | MBC (S. aureus ATCC 29213 [3]; ATCC29213): 1250 µg/mL (≈ 8.32 mM) | MIC (S. aureus ATCC 29213 [3]; ATCC29213, 24 h): 600 µg/mL (≈ 3.99 mM) | MBC ([4]; ATCC35984): 1250 µg/mL (≈ 8.32 mM) | MIC ([4]; ATCC35984, 24 h): 300 µg/mL (≈ 2 mM) | MFC (C. albicans ATCC 10231 [5]): 600 µg/mL (≈ 3.99 mM) | MIC (C. albicans ATCC 10231 [5]): 300 µg/mL (≈ 2 mM) | BEC as multiple of MIC (C. albicans ATCC 10231 [7]; C. albicans ATCC 10231): MFC | BEC (C. albicans ATCC 10231 [7]; C. albicans ATCC 10231 established biofilm): 0.6 mg/mL | BIC (C. albicans ATCC 10231 [7]; C. albicans ATCC 10231 established biofilm, 24 h): 0.3 mg/mL | BEC as multiple of MIC (E. coli ATCC 8739 [8]; E. coli ATCC 8739): 64MIC | BIC as multiple of MIC (E. coli ATCC 8739 [8]; E. coli ATCC 8739): 64MIC | BEC (E. coli ATCC 8739 [8]; E. coli ATCC 8739 established biofilm): 40 mg/mL | BIC (E. coli ATCC 8739 [8]; E. coli ATCC 8739 established biofilm, 24 h): 40 mg/mL | BEC as multiple of MIC (P. aeruginosa ATCC 9027 [9]; P. aeruginosa ATCC 9027): 2MIC | BEC (P. aeruginosa ATCC 9027 [9]; P. aeruginosa ATCC 9027 established biofilm): 10 mg/mL | BIC (P. aeruginosa ATCC 9027 [9]; P. aeruginosa ATCC 9027 established biofilm, 24 h): 5 mg/mL | BEC (S. aureus ATCC 29213 [10]): 2.5 mg/mL | BIC (S. aureus ATCC 29213 [10]; 24 h): 1.2 mg/mL | BEC as multiple of MIC ([11]; S. epidermidis ATCC 35984): 2MIC | BEC ([11]; S. epidermidis ATCC 35984 established biofilm): 0.6 mg/mL | BIC ([11]; S. epidermidis ATCC 35984 established biofilm, 24 h): 0.3 mg/mL

SMILES: C[Se]CC[C@H](NC(C)=O)C(=O)Oc1cc(C(C)C)ccc1C [codrug 6, N-Ac-Met(Se)-CAR]
MIC (E. coli ATCC 8739 [1]; [13]): 5000 µg/mL (≈ 13.5 mM) | MBC (E. coli ATCC 8739 [1]; [14]): 10000 µg/mL (≈ 27 mM) | MIC (P. aeruginosa ATCC 9027 [2]; [15]): 5000 µg/mL (≈ 13.5 mM) | MBC (P. aeruginosa ATCC 9027 [2]; [16]): 10000 µg/mL (≈ 27 mM) | MIC (S. aureus ATCC 29213 [3]; [17]): 10000 µg/mL (≈ 27 mM) | MBC (S. aureus ATCC 29213 [3]; [18]): 10000 µg/mL (≈ 27 mM) | MIC [4, 19]: 5000 µg/mL (≈ 13.5 mM) | MBC [4, 20]: 10000 µg/mL (≈ 27 mM) | MIC (C. albicans ATCC 10231 [5]; [21]): 150 µg/mL (≈ 0.405 mM) | MFC (C. albicans ATCC 10231 [5]; [22]): 600 µg/mL (≈ 1.62 mM) | concentration at which hemolytic activity is over 50% [12]: over 20 mg/mL

Continued, in another order:

MIC (E. coli ATCC 8739 [1]; [13]): 5000 µg/mL (≈ 30.6 mM) | MIC (P. aeruginosa ATCC 9027 [2]; [15]): 5000 µg/mL (≈ 30.6 mM) | MIC (S. aureus ATCC 29213 [3]; [17]): 5000 µg/mL (≈ 30.6 mM) | MIC [4, 19]: 5000 µg/mL (≈ 30.6 mM) | MIC (C. albicans ATCC 10231 [5]; [21]): 20000 µg/mL (≈ 123 mM) | MIC and MBC values (range over strains) [6]: 5 to 20 mg/mL
SMILES: CC(=O)N[C@@H](CS)C(=O)O [NAC, N-Acetyl-cysteine, reference compound]
MBC (E. coli ATCC 8739 [1]; [14]): 5000 µg/mL (≈ 30.6 mM) | MBC (P. aeruginosa ATCC 9027 [2]; [16]): 5000 µg/mL (≈ 30.6 mM) | MBC (S. aureus ATCC 29213 [3]; [18]): 20000 µg/mL (≈ 123 mM) | MBC [4, 20]: 5000 µg/mL (≈ 30.6 mM) | MFC (C. albicans ATCC 10231 [5]; [22]): 80000 µg/mL (≈ 490 mM)

MIC (E. coli ATCC 8739 [1]; [13]): 5000 µg/mL (≈ 14.8 mM) | MIC (P. aeruginosa ATCC 9027 [2]; [15]): 5000 µg/mL (≈ 14.8 mM) | MIC (S. aureus ATCC 29213 [3]; [17]): 10000 µg/mL (≈ 29.5 mM) | MIC [4, 19]: 10000 µg/mL (≈ 29.5 mM) | MIC (C. albicans ATCC 10231 [5]; [21]): 2500 µg/mL (≈ 7.38 mM)
SMILES: Cc1ccc(C(C)C)cc1OC(=O)CCCC[C@@H]1CCSS1 [codrug 7, LA-CAR]
MBC (E. coli ATCC 8739 [1]; [14]): 10000 µg/mL (≈ 29.5 mM) | MBC (P. aeruginosa ATCC 9027 [2]; [16]): 10000 µg/mL (≈ 29.5 mM) | MBC (S. aureus ATCC 29213 [3]; [18]): 10000 µg/mL (≈ 29.5 mM) | MBC [4, 20]: 10000 µg/mL (≈ 29.5 mM) | MFC (C. albicans ATCC 10231 [5]; [22]): 5000 µg/mL (≈ 14.8 mM) | hemolytic activity, maximum at the tested concentrations [12]: ≤ 12%

MIC (E. coli ATCC 8739 [1]; [13]): 10000 µg/mL (≈ 35.8 mM) | MIC (P. aeruginosa ATCC 9027 [2]; [15]): 10000 µg/mL (≈ 35.8 mM) | MIC (S. aureus ATCC 29213 [3]; [17]): 10000 µg/mL (≈ 35.8 mM) | MIC [4, 19]: 10000 µg/mL (≈ 35.8 mM) | MIC (C. albicans ATCC 10231 [5]; [21]): 2500 µg/mL (≈ 8.95 mM)
SMILES: Cc1ccc(C(C)C)cc1OC(=O)[C@@H]1CSC(=O)N1 [codrug 10, OTC-CAR]
MBC (E. coli ATCC 8739 [1]; [14]): 10000 µg/mL (≈ 35.8 mM) | MBC (P. aeruginosa ATCC 9027 [2]; [16]): 10000 µg/mL (≈ 35.8 mM) | MBC (S. aureus ATCC 29213 [3]; [18]): 10000 µg/mL (≈ 35.8 mM) | MBC [4, 20]: 10000 µg/mL (≈ 35.8 mM) | MFC (C. albicans ATCC 10231 [5]; [22]): 2500 µg/mL (≈ 8.95 mM) | hemolytic activity, maximum at the tested concentrations [12]: ≤ 12%
